Results reported in ChEMBL document CHEMBL1131670, “N-hydroxyurea and hydroxamic acid inhibitors of cyclooxygenase and 5-lipoxygenase” (Bioorg Med Chem Lett, 1999).

How the values were obtained:
[1] = target: T1, Polyunsaturated fatty acid 5-lipoxygenase (Homo sapiens) (UniProt P09917); assay: Inhibitory activity against 5-lipoxygenase (5-LO) in after oral administration of 5 mg/kg at 24 hr r to canine; type: organism-based; set-up: dose 5 mg/kg; details: Canis lupus familiaris; target entry is the homologue from another species; at 5 mg/kg
T1 sequence (whole entry): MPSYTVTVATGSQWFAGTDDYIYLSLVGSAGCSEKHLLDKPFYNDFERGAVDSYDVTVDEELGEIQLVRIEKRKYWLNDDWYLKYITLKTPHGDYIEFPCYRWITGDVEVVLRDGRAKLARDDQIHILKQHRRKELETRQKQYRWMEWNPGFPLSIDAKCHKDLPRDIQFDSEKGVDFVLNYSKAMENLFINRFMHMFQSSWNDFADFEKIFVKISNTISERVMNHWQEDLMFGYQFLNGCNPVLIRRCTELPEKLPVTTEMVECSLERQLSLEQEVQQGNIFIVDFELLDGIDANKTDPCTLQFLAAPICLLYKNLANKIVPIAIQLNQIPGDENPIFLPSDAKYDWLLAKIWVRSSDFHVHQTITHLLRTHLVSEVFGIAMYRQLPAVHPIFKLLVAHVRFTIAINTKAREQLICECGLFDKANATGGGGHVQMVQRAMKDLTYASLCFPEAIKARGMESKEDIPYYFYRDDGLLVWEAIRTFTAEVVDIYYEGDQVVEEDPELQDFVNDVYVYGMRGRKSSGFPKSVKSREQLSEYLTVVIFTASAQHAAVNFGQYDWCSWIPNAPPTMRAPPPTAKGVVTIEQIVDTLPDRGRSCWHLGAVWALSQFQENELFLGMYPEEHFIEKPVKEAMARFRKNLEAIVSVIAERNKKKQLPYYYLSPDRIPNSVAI

[2] = target: T1, Polyunsaturated fatty acid 5-lipoxygenase (Homo sapiens); assay: Inhibitory activity against 5-lipoxygenase (5-LO) in after oral administration of 5 mg/kg at 2 hr to canine; type: organism-based; set-up: dose 5 mg/kg; details: Canis lupus familiaris; target entry is the homologue from another species; at 5 mg/kg
[3] = target: T1, Polyunsaturated fatty acid 5-lipoxygenase (Homo sapiens); assay: Inhibitory activity against 5-lipoxygenase (5-LO) in after oral administration of 5 mg/kg at 4 hr to canine; type: organism-based; set-up: dose 5 mg/kg; details: Canis lupus familiaris; target entry is the homologue from another species; at 5 mg/kg
[4] = target: T1, Polyunsaturated fatty acid 5-lipoxygenase (Homo sapiens); assay: Inhibitory activity against 5-lipoxygenase (5-LO) in after oral administration of 5 mg/kg at 8 hr to canine; type: organism-based; set-up: dose 5 mg/kg; details: Canis lupus familiaris; target entry is the homologue from another species; at 5 mg/kg
[5] = target: T2, Cyclooxygenase (Homo sapiens) (UniProt P35354+P23219); assay: Inhibitory activity against cyclooxygenase (COX) in after oral administration of 5 mg/kg at 24 hr r; type: organism-based; set-up: dose 5 mg/kg; details: Canis lupus familiaris; at 5 mg/kg
[6] = target: T2, Cyclooxygenase (Homo sapiens); assay: Inhibitory activity against cyclooxygenase (COX) in after oral administration of 5 mg/kg at 2 hr to canine; type: organism-based; set-up: dose 5 mg/kg; details: Canis lupus familiaris; target entry is the homologue from another species; at 5 mg/kg
[7] = target: T2, Cyclooxygenase (Homo sapiens); assay: Inhibitory activity against cyclooxygenase (COX) in after oral administration of 5 mg/kg at 4 hr to canine; type: organism-based; set-up: dose 5 mg/kg; details: Canis lupus familiaris; target entry is the homologue from another species; at 5 mg/kg
[8] = target: T2, Cyclooxygenase (Homo sapiens); assay: Inhibitory activity against cyclooxygenase (COX) in after oral administration of 5 mg/kg at 8 hr to canine; type: organism-based; set-up: dose 5 mg/kg; details: Canis lupus familiaris; target entry is the homologue from another species; at 5 mg/kg
Cyclooxygenase [9] = target: T3, Cyclooxygenase (Rattus norvegicus, UniProt P35355+Q63921); assay: (§1) Inhibitory activity against Cyclooxygenase (COX) using broken rat […] leukemia cells (RBL-1); type: cell-based
T3 sequence (P35355 whole entry): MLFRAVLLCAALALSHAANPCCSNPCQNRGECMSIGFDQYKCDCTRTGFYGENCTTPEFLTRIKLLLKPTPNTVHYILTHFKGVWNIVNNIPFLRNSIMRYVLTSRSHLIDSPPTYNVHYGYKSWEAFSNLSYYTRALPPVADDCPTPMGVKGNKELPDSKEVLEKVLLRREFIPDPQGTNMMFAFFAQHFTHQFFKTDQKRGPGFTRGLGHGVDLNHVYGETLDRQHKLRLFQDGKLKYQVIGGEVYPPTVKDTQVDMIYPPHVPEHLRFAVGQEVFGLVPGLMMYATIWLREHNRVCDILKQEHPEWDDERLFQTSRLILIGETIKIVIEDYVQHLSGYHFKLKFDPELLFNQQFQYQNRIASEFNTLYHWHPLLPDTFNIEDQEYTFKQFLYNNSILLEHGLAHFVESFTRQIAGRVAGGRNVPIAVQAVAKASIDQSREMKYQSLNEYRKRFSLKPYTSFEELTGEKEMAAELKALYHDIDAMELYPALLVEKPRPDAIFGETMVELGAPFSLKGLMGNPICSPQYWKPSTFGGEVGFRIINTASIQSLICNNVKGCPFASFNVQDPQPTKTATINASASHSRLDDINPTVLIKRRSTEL
T3 sequence (Q63921 whole entry): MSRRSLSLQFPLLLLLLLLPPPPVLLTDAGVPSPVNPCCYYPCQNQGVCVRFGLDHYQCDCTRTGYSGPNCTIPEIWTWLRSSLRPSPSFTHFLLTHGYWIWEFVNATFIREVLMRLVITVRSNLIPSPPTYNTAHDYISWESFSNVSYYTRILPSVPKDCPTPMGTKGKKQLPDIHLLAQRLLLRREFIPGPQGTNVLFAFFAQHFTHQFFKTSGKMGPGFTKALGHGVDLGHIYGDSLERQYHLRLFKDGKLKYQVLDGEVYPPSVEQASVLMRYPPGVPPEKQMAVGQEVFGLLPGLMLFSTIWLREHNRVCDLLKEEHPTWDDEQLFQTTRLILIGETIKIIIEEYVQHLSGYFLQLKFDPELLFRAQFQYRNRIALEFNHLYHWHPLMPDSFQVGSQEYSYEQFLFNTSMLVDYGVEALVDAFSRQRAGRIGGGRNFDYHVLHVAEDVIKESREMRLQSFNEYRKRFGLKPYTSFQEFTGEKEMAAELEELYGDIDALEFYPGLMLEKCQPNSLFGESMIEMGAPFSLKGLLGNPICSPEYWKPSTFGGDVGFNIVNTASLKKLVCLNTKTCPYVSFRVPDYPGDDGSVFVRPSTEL

Cyclooxygenase [10] = target: T3, Cyclooxygenase; assay: Inhibitory activity against cyclooxygenase (COX) in intact rat […] leukemia cells (RBL-1); type: cell-based
[11] = target: T4, Cyclooxygenase (Rattus norvegicus) (UniProt P35355+Q63921); assay: as §1; type: cell-based; details: concentration not given here
[12] = target: T5, Prostaglandin G/H synthase 1 (Ovis aries) (UniProt P05979); assay: Inhibitory activity against Cyclooxygenase using sheep seminal vesicle (SSV) enzyme (COX-1) at 10 uM; type: tissue-based
T5 sequence (whole entry): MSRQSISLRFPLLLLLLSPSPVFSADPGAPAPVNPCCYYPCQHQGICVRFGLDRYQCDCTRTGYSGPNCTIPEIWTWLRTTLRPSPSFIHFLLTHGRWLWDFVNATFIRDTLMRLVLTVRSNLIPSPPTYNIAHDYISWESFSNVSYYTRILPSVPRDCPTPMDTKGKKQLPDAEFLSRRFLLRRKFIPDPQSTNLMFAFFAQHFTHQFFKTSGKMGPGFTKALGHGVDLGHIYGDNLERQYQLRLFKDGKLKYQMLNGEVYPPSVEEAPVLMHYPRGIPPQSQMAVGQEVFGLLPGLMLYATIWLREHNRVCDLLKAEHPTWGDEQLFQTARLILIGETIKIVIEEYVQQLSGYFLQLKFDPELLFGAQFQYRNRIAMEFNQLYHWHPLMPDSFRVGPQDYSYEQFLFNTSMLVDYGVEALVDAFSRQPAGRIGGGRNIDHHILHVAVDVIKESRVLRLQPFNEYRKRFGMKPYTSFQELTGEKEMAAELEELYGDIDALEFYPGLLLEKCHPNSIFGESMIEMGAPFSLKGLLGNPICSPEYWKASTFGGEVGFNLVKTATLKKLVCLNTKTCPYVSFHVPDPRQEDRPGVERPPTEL

[13] = target: T6, Polyunsaturated fatty acid 5-lipoxygenase (Rattus norvegicus) (UniProt P12527); assay: Inhibitory activity against 5-lipoxygenase (5-LO) using broken rat […] leukemia cells (RBL-1)at 10 uM; type: cell-based
T6 sequence (whole entry): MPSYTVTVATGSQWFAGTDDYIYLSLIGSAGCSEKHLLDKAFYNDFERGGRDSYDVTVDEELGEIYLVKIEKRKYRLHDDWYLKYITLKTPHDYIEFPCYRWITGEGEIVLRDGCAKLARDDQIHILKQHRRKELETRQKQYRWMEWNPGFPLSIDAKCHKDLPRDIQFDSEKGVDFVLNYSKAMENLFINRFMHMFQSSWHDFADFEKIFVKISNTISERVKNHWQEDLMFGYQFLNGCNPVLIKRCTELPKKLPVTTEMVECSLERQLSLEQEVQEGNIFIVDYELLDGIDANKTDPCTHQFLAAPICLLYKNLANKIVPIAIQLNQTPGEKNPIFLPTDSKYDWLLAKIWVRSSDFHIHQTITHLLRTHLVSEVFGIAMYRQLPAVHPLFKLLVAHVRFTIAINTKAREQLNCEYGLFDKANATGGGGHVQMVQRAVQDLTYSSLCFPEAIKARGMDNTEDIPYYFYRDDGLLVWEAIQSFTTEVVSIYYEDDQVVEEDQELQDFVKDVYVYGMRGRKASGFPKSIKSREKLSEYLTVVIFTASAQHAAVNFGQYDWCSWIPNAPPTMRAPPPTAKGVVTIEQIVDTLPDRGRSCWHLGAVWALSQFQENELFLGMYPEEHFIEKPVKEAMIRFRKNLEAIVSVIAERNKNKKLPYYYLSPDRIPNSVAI

[14] = target: T1, Polyunsaturated fatty acid 5-lipoxygenase (Homo sapiens); assay: Inhibitory activity against 5-lipoxygenase (5-LO) in after oral administration of 5 mg/kg at 24 hr r; type: organism-based; set-up: dose 5 mg/kg; details: Canis lupus familiaris; at 5 mg/kg
[15] = target: T1, Polyunsaturated fatty acid 5-lipoxygenase (Homo sapiens); assay: Inhibitory activity against 5-lipoxygenase (5-LO) in after oral administration of 5 mg/kg at 2 hr; type: organism-based; set-up: dose 5 mg/kg; details: Canis lupus familiaris; at 5 mg/kg
[16] = target: T1, Polyunsaturated fatty acid 5-lipoxygenase (Homo sapiens); assay: Inhibitory activity against 5-lipoxygenase (5-LO) in after oral administration of 5 mg/kg at 4 hr; type: organism-based; set-up: dose 5 mg/kg; details: Canis lupus familiaris; at 5 mg/kg
[17] = target: T1, Polyunsaturated fatty acid 5-lipoxygenase (Homo sapiens); assay: Inhibitory activity against 5-lipoxygenase (5-LO) in after oral administration of 5 mg/kg at 8 hr; type: organism-based; set-up: dose 5 mg/kg; details: Canis lupus familiaris; at 5 mg/kg
[18] = target: T2, Cyclooxygenase (Homo sapiens); assay: Inhibitory activity against cyclooxygenase (COX) in after oral administration of 5 mg/kg at 4 hr; type: organism-based; set-up: dose 5 mg/kg; details: Canis lupus familiaris; at 5 mg/kg
[19] = target: T2, Cyclooxygenase (Homo sapiens); assay: Inhibitory activity against cyclooxygenase (COX) in after oral administration of 5 mg/kg at 8 hr; type: organism-based; set-up: dose 5 mg/kg; details: Canis lupus familiaris; at 5 mg/kg
[20] = target: T6, Polyunsaturated fatty acid 5-lipoxygenase (Rattus norvegicus); assay: Inhibitory activity against 5-lipoxygenase (5-LO) using broken rat […] leukemia cells (RBL-1) at 10 uM; type: cell-based
[21] = target: T4, Cyclooxygenase (Rattus norvegicus); assay: Inhibitory activity against Cyclooxygenase (COX) using broken rat […] leukemia cells (RBL-1) at 10 uM; type: cell-based
[22] = target: T5, Prostaglandin G/H synthase 1 (Ovis aries); assay: Inhibitory activity against Cyclooxygenase using sheep seminal vesicle (SSV) enzyme (COX-1) Inhibition at 10 uM; type: tissue-based
[23] = target: T7, Polyunsaturated fatty acid 5-lipoxygenase (Rattus norvegicus, UniProt P12527); assay: Inhibitory activity against 5-lipoxygenase (5-LO) using broken rat […] leukemia cells (RBL-1); type: cell-based
T7 sequence (P12527 whole entry): T6 sequence (whole entry)

Work on `COc1ccc(-n2nc(C#CCN(O)C(N)=O)cc2-c2ccc(C)cc2)cc1` yielded an inhibition [1] of 10%, an inhibition [2] of 53% and an inhibition [3] of 32%. It also gave an inhibition [4] of 15%, an inhibition [5] of 11% and an inhibition [6] of 82%. The inhibition [7] was 76%, the inhibition [8] was 46% and the IC50 (Cyclooxygenase [9]) was 310 nM. It also gave an IC50 (Cyclooxygenase [10]) of 12100 nM.

For `COc1ccc(-n2nc(C#CCN(O)C(C)=O)cc2-c2ccc(C)cc2)cc1`, the inhibition [11] was 100%, the inhibition [12] was 74% and the IC50 (Cyclooxygenase [10]) was 30 nM. For the same molecule, the inhibition [13] was 100%.

In the case of `COc1ccc(-n2nc(C#CC(C)N(O)C(C)=O)cc2-c2ccc(Cl)cc2)cc1` (stereo not drawn), the inhibition [14] is reported as 12%, the inhibition [15] is reported as 34% and the inhibition [16] is reported as 20%. The inhibition [17] was 31%, the inhibition [5] was 68% and the inhibition [6] was 92%. For the same molecule, the inhibition [18] was 75% and the inhibition [19] was 62%.

`CNC(=O)N(O)C(C)C#Cc1cc(-c2ccc(Cl)cc2)n(-c2ccc(OC)cc2)n1` (stereo not drawn) was tested, and the inhibition [20] was 79%, the inhibition [21] was 0% and the inhibition [22] was 5%.

`COc1ccc(-n2nc(CCC(=O)N(C)O)cc2-c2ccc(Cl)cc2)cc1` [TEPOXALIN] showed an IC50 [23] of 1700 nM, an IC50 (Cyclooxygenase [9]) of 4200 nM and an IC50 (Cyclooxygenase [10]) of 2850 nM.
